Earlier results in patent EP2061448B1, “SUSTAINED RELEASE FORMULATION OF NALTREXONE” (Nalpropion Pharmaceuticals, Inc., priority 2006, dated 2007).
Like-named read-outs stand apart in the source and are kept apart here.

How the values were obtained:
[1] = test system: pharmacologic effects of 25 mg of intravenously administered heroin
[2] = oral administration, immediate release form
[3] = initial 25 mg dose followed by 50 mg daily for 10 weeks

Compound | period of block of the pharmacologic effects of heroin ([1]; 50 mg of naltrexone hydrochloride, 25 mg of intravenously administered heroin) | duration of blockade ([1]; doubling the dose of naltrexone hydrochloride) | duration of blockade ([1]; tripling the dose of naltrexone hydrochloride) | Tmax [2] | Moderate to severe nausea, patients [3]
naltrexone hydrochloride | ≤ 24 hours | 48 h | about 72 hours |  | 
O=C1CC[C@@]2(O)[C@H]3Cc4ccc(O)c5c4[C@@]2(CCN3CC2CC2)[C@H]1O5 [naltrexone, 17-(cyclopropylmethyl)-4,5α-epoxy-3,14-dihydroxymorphinan-6-one] |  |  |  | approximately 1 hour | 15%
